From patent US6486198B1, “Compounds and methods for the treatment of post traumatic stress disorder” (priority 1999, dated 2002)

Key:
[1] = tested on: patients meeting DSM-IV criteria for chronic PTSD; test: Discontinuation, side effects and tolerability in the PTSD patient study; format: in vivo, human
From the text: Thirty five (35) patients meeting DSM-IV criteria for chronic post-traumatic stress disorder (PTSD) were selected for a study of the effects of topiramate administration. Of these, […] had non-hallucinatory PTSD and 6 hallucinatory PTSD. The group with hallucinatory PTSD experienced auditory and/or visual hallucinations containing content specifically associated with identified traumatic events. Whether these were PTSD “flashbacks” or psychotic experiences were at times difficult to ascertain due to fluctuations in reality testing the hallucinations. For this reason, prior to being screened for PTSD, some patients had received psychiatric diagnoses of psychotic disorders despite meeting full diagnostic criteria for PTSD.
(§1) Topiramate was added naturalistically to existing pharmacotherapy (see Table 1 for concomitant medications at start of trial), starting at 25 mglday and increasing whenever possible by 25 to 50 mg/day every 3 to 4 days to clinical response. Target symptoms were DSM-IV PTSD criterion B symptoms of nightmares (N =24) and intrusions (intrusive recollections/flashbacks, N=35) involving re-experiencing of traumas. Definitions of improvement, as assessed from patient self-report, included “partial response” as “definite reduction in intensity and frequency of nightmares or intrusions”, and “full response” as “complete cessation of nightmares and intrusions for a sustained period”. Following the seminal observations, in order to systematically identify responsive symptoms, the next 17 patients completed a self-report scale, the PTSD Checklist—Civilian Version (PCL-C)15, at baseline and at 4 weeks after starting topiramate. The patients were instructed to complete the PCL-C for experiences corresponding to traumas consistent with DSM-IV criterion A for PTSD. Paired ttest scores for the PCL-C were calculated with Jandel SigmaStat® v. 2.0.
Thirteen patients eventually discontinued treatment: 9 due to side effects (urticaria [N=1], eating cessation [N=2], ocular and limb paresthesias [N=1], severe headaches [N=1], overstimulation/panic [N=2], emergent suicidal ideation [N=1], and memory concerns [N=1]) and 4 for other reasons (patient choice [N=1], lack of relapse upon medication interruption [N=2], lack of efficacy [N=1]). Five of the discontinuers had experienced full symptom remission prior to discontinuation and 3 additional patients reported partial response.
Discontinuation due to medication-associated side effects, such as nausea and memory concerns, may have been due to the presence of other medications, to medication interactions, or to individual variation in time needed to accommodate to initial side effects. Subsequent to discontinuation of topiramate, the patient who experienced urticaria continued to complain of unrelated episodes of urticaria. […] When they occurred, side effects were easily managed by dosage reduction or a brief hiatus in administration.

PTSD symptoms (PCL-C) = test: PTSD Checklist-Civilian Version (PCL-C) self-report scale at baseline and 4 weeks after starting topiramate; format: in vivo, human; settings: 17 patients
Method: as §1
Response was also assessed in 17 patients who completed the PCL-C prior to topiramate therapy and at Week 4 of treatment: mean total PCL-C scores were 60±10.4 at baseline and 39±10.5 at Week 4 (instrument range: 17 to 85, threshold for active PTSD=[…], paired t-test). Adjusting the baseline score by subtracting by 17 to set the score for no PTSD symptoms to zero, there was a 48% reduction (59.8 to 38.8)/(59.8-17) in total score. Subscale score reductions were similar for criterion B (re-experiencing), criterion C (avoidance), and criterion D (hyperarousal) symptoms: 60%, 49%, and 42%, respectively.

[2] = tested on: simple and complex partial seizures and secondarily generalized seizures; settings: cited from earlier work

Compound: CC1(C)O[C@@H]2[C@@H](CO[C@@]3(COS(N)(=O)=O)OC(C)(C)O[C@@H]23)O1 [Topiramate, 2,3:4,5-bis-O-(1-methylethylidene)-β-D-fructopyranose sulfamate]
- Safety in the study ([1]; PTSD patients): posed no safety issues
- Tolerability ([1]; PTSD population): appeared well tolerated
- Patients discontinued due to side effects ([1]; of 35 patients): 9
- Patients who eventually discontinued treatment ([1]; of 35 patients): Thirteen
- Additional discontinuers reporting partial response ([1]; of thirteen discontinuers): 3 patients
- Discontinuers with full symptom remission prior to discontinuation ([1]; of thirteen discontinuers): Five
- PCL-C subscale score reduction, criterion B (re-experiencing) (PTSD symptoms (PCL-C); baseline vs Week 4): 60%
- PCL-C subscale score reduction, criterion C (avoidance) (PTSD symptoms (PCL-C); baseline vs Week 4): 49%
- PCL-C subscale score reduction, criterion D (hyperarousal) (PTSD symptoms (PCL-C); baseline vs Week 4): 42%
- Reduction in total PCL-C score (baseline adjusted by subtracting 17) (PTSD symptoms (PCL-C); baseline vs Week 4): 48%
- Mean total PCL-C score at Week 4 (PTSD symptoms (PCL-C); baseline 60±10.4, instrument range 17 to 85, threshold for active PTSD=50): 39±10.5
- Efficacy in treatment of seizure types ([2]; adults and children): efficacy in the treatment of a broad range of seizure types
- Efficacy in clinical trials of human epilepsy ([2]; simple and complex partial seizures and secondarily generalized seizures): effective as adjunctive therapy or as monotherapy
